Data: ChEMBL document CHEMBL5550123, “Discovery of novel pyridone-benzamide derivatives possessing a 1-methyl-2-benzimidazolinone moiety as potent EZH2 inhibitors for the treatment of B-cell lymphomas” (Bioorg Med Chem, 2024)

How the values were obtained:
KARPAS-422 = experiment: Antiproliferative activity against human KARPAS-422 cells assessed as inhibition of cell growth measured after 72 hrs by CCK-8 method; assay type: functional, cell-based; details: KARPAS-422, 72 h
[1] = Inhibition of EZH2 Y641F mutant (unknown origin) preincubated for 15 mins followed by substrate addition and measured after 45 mins by AlphaLISA assay; set-up: species or system Homo sapiens
[2] = Inhibition of EZH2 Y641N mutant (unknown origin) preincubated for 15 mins followed by substrate addition and measured after 45 mins by AlphaLISA assay; set-up: species or system Homo sapiens
[3] = Metabolic stability in human liver microsomes assessed as half life at 1 uM measured upto 60 mins in presence of NADPH by LC-MS/MS analysis; assay type: ADME, Microsome
[4] = Metabolic stability in human liver microsomes assessed as intrinsic clearance at 1 uM measured upto 60 mins in presence of NADPH by LC-MS/MS analysis; assay type: ADME, Microsome; details: read-out: CLH

`CCN(c1cc(-c2ccc3c(c2)n(C2CN(C)C2)c(=O)n3C)cc(C(=O)NCc2c(C)cc(C)[nH]c2=O)c1C)C1CCOCC1` showed an IC50 (KARPAS-422) of 43.5 nM.

`CCN(c1cc(-c2ccc3c(c2)n(C)c(=O)n3C2CN(C(=O)C3CC3)C2)cc(C(=O)NCc2c(C)cc(C)[nH]c2=O)c1C)C1CCOCC1` gave an IC50 (KARPAS-422) of 31.2 nM.

In the case of `CCN(c1cc(-c2ccc3c(c2)n(C2CCOCC2)c(=O)n3C)cc(C(=O)NCc2c(C)cc(C)[nH]c2=O)c1C)C1CCOCC1`, the IC50 (KARPAS-422) is reported as 29.9 nM.

With `CCN(c1cc(-c2ccc3c(c2)n(CC)c(=O)n3C2CCOCC2)cc(C(=O)NCc2c(C)cc(C)[nH]c2=O)c1C)C1CCOCC1` the IC50 (KARPAS-422) was 62.5 nM.

For `CCN(C)C1CCC(N(CC)c2cc(-c3ccc4c(c3)n(C)c(=O)n4C3CCN(C)CC3)cc(C(=O)NCc3c(C)cc(C)[nH]c3=O)c2C)CC1` (stereo not given), the IC50 (KARPAS-422) was 26.4 nM.

`CCN(c1cc(-c2ccc3c(c2)n(C)c(=O)n3C2CN(C)C2)cc(C(=O)NCc2c(C)cc(C)[nH]c2=O)c1C)C1CCOCC1` gave an IC50 (KARPAS-422) of 29.3 nM.

With `CCN(c1cc(-c2ccc3c(c2)n(C)c(=O)n3C2COC2)cc(C(=O)NCc2c(C)cc(C)[nH]c2=O)c1C)C1CCOCC1` the IC50 (KARPAS-422) was 57.4 nM.

With `CCN(c1cc(-c2ccc3c(c2)n(C)c(=O)n3C2CCN(C)CC2)cc(C(=O)NCc2c(C)cc(C)[nH]c2=O)c1C)C1CCC(N(C)C2COC2)CC1` (stereo not given) the IC50 (KARPAS-422) was 23.2 nM.

With `CCN(c1cc(-c2ccc(CN3CCOCC3)cc2)cc(C(=O)NCc2c(C)cc(C)[nH]c2=O)c1C)C1CCOCC1` [TAZEMETOSTAT] the IC50 (KARPAS-422) was 35 nM, the IC50 [1] was 0.37 nM and the IC50 [2] was 0.85 nM. For the same compound, the half-life at 1 µM [3] was 0.133 h and the microsomal CLint at 1 µM [4] was 174 µL/min/mg.

Compound `CCN1CCC(n2c(=O)n(C)c3cc(-c4cc(C(=O)NCc5c(C)cc(C)[nH]c5=O)c(C)c(N(CC)C5CCOCC5)c4)ccc32)CC1` has an IC50 (KARPAS-422) of 23.5 nM.

`CCN(c1cc(-c2ccc3c(c2)n(C)c(=O)n3C2CCN(CC3CC3)CC2)cc(C(=O)NCc2c(C)cc(C)[nH]c2=O)c1C)C1CCOCC1` gave an IC50 (KARPAS-422) of 24.6 nM.

`CCN(c1cc(-c2ccc3c(c2)n(C)c(=O)n3C2CCN(CC(F)F)CC2)cc(C(=O)NCc2c(C)cc(C)[nH]c2=O)c1C)C1CCOCC1` showed an IC50 (KARPAS-422) of 50.6 nM.

Compound `CCN(c1cc(-c2ccc3c(c2)[nH]c(=O)n3C2CCOCC2)cc(C(=O)NCc2c(C)cc(C)[nH]c2=O)c1C)C1CCOCC1` has an IC50 (KARPAS-422) of 51.2 nM.

`CCN(c1cc(-c2ccc3c(c2)n(C)c(=O)n3C2CN(CC#N)C2)cc(C(=O)NCc2c(C)cc(C)[nH]c2=O)c1C)C1CCOCC1` gave an IC50 (KARPAS-422) of 58.2 nM.

With `CCN(c1cc(-c2ccc3c(c2)n(C)c(=O)n3C2CN(C(C)=O)C2)cc(C(=O)NCc2c(C)cc(C)[nH]c2=O)c1C)C1CCOCC1` the IC50 (KARPAS-422) was 145 nM.

With `CCC(=O)N1CCC(n2c(=O)n(C)c3cc(-c4cc(C(=O)NCc5c(C)cc(C)[nH]c5=O)c(C)c(N(CC)C5CCOCC5)c4)ccc32)CC1` the IC50 (KARPAS-422) was 37.7 nM.

`CCN1CC(n2c(=O)n(C)c3ccc(-c4cc(C(=O)NCc5c(C)cc(C)[nH]c5=O)c(C)c(N(CC)C5CCOCC5)c4)cc32)C1` showed an IC50 (KARPAS-422) of 52.9 nM.

For `CCN(c1cc(-c2ccc3c(c2)n(C)c(=O)n3C2CCN(CC#N)CC2)cc(C(=O)NCc2c(C)cc(C)[nH]c2=O)c1C)C1CCOCC1`, the IC50 (KARPAS-422) was 53.8 nM.

In the case of `CCN1CCC(n2c(=O)n(C)c3ccc(-c4cc(C(=O)NCc5c(C)cc(C)[nH]c5=O)c(C)c(N(CC)C5CCOCC5)c4)cc32)CC1`, the IC50 (KARPAS-422) is reported as 32.8 nM.

In the case of `CCN(c1cc(-c2ccc3c(c2)n(C)c(=O)n3C2CCN(C)CC2)cc(C(=O)NCc2c(C)cc(C)[nH]c2=O)c1C)C1CCN(C)CC1`, the IC50 (KARPAS-422) is reported as 173 nM.

Compound `CCN(c1cc(-c2ccc3c(c2)n(C)c(=O)n3C2CCN(C)CC2)cc(C(=O)NCc2c(C)cc(C)[nH]c2=O)c1C)C1CCN(C(C)=O)CC1` has an IC50 (KARPAS-422) of 105 nM.

Compound `CCN(c1cc(-c2ccc3c(c2)n(C)c(=O)n3C2CCN(C)CC2)cc(C(=O)NCc2c(C)cc(C)[nH]c2=O)c1C)C1CCN(C2COC2)CC1` has an IC50 (KARPAS-422) of 219 nM.

`CCN(c1cc(-c2ccc3c(c2)n(C2CN(C4COC4)C2)c(=O)n3C)cc(C(=O)NCc2c(C)cc(C)[nH]c2=O)c1C)C1CCOCC1` gave an IC50 (KARPAS-422) of 154 nM.

`CCN(c1cc(-c2ccc3c(c2)n(C)c(=O)n3CCOC)cc(C(=O)NCc2c(C)cc(C)[nH]c2=O)c1C)C1CCOCC1` gave an IC50 (KARPAS-422) of 60.8 nM.

With `CCN(c1cc(-c2ccc3c(c2)n(C)c(=O)n3C2CCN(C3COC3)CC2)cc(C(=O)NCc2c(C)cc(C)[nH]c2=O)c1C)C1CCOCC1` the IC50 (KARPAS-422) was 25.5 nM.

Work on `CCN(c1cc(-c2ccc3c(c2)n(C)c(=O)n3C2CCOCC2)cc(C(=O)NCc2c(C)cc(C)[nH]c2=O)c1C)C1CCOCC1` yielded an IC50 (KARPAS-422) of 49.5 nM.

`CCN(c1cc(-c2ccc3c(c2)n(C)c(=O)n3C2CCN(C)CC2)cc(C(=O)NCc2c(C)cc(C)[nH]c2=O)c1C)C1CCN(CC2CC2)CC1` gave an IC50 (KARPAS-422) of 159 nM.

With `CCN(c1cc(-c2ccc3c(c2)n(C)c(=O)n3C2CCN(C)CC2)cc(C(=O)NCc2c(C)cc(C)[nH]c2=O)c1C)C1CCC(N(C)CCOC)CC1` (stereo not given) the IC50 (KARPAS-422) was 9.63 nM, the IC50 [1] was 0.14 nM and the IC50 [2] was 0.17 nM. It also gave a half-life at 1 µM [3] of 2.46 h and a microsomal CLint at 1 µM [4] of 9.38 µL/min/mg.

Compound `CCN(c1cc(-c2ccc3c(c2)n(C)c(=O)n3C2CCN(C(C)=O)CC2)cc(C(=O)NCc2c(C)cc(C)[nH]c2=O)c1C)C1CCOCC1` has an IC50 (KARPAS-422) of 85.8 nM.

In the case of `CCN(c1cc(-c2ccc3c(c2)n(C)c(=O)n3C2CCN(S(C)(=O)=O)CC2)cc(C(=O)NCc2c(C)cc(C)[nH]c2=O)c1C)C1CCOCC1`, the IC50 (KARPAS-422) is reported as 68.4 nM.

Work on `CCN(c1cc(-c2ccc3c(c2)n(C)c(=O)n3C2CCN(C)CC2)cc(C(=O)NCc2c(C)cc(C)[nH]c2=O)c1C)C1CCOCC1` yielded an IC50 (KARPAS-422) of 18.4 nM.

In the case of `CCN(c1cc(-c2ccc3c(c2)n(C)c(=O)n3C2CN(CC3CC3)C2)cc(C(=O)NCc2c(C)cc(C)[nH]c2=O)c1C)C1CCOCC1`, the IC50 (KARPAS-422) is reported as 39.7 nM.

Work on `CCN(c1cc(-c2ccc3c(c2)n(C)c(=O)n3C2CCN(CC(F)(F)F)CC2)cc(C(=O)NCc2c(C)cc(C)[nH]c2=O)c1C)C1CCOCC1` yielded an IC50 (KARPAS-422) of 52.8 nM.

In the case of `CCN(c1cc(-c2ccc3c(c2)n(C2CCN(C)CC2)c(=O)n3C)cc(C(=O)NCc2c(C)cc(C)[nH]c2=O)c1C)C1CCOCC1`, the IC50 (KARPAS-422) is reported as 26.3 nM.

For `CCN(c1cc(-c2ccc3c(c2)n(C)c(=O)n3C2CCN(C(=O)C3CC3)CC2)cc(C(=O)NCc2c(C)cc(C)[nH]c2=O)c1C)C1CCOCC1`, the IC50 (KARPAS-422) was 27.8 nM.

With `CCN(c1cc(-c2ccc3c(c2)n(C)c(=O)n3C2CN(CC(F)F)C2)cc(C(=O)NCc2c(C)cc(C)[nH]c2=O)c1C)C1CCOCC1` the IC50 (KARPAS-422) was 45.6 nM.

Compound `CCN(C(=O)C1CC1)c1cc(-c2ccc3c(c2)n(C)c(=O)n3C2CCN(C)CC2)cc(C(=O)NCc2c(C)cc(C)[nH]c2=O)c1C` has an IC50 (KARPAS-422) of 29.8 nM.
